From patent US9603865B2, “Methods for the treatment of hepatitis B and hepatitis D virus infections” (priority 2014, dated 2017)
Structures can show the parent of a compound that is named as a salt.

How the values were obtained:
DHBV [1] = assay: Serum DHBV DNA by quantitative PCR in DHBV infected Pekin ducks, combination treatment (Example III); assay type: in vivo
Method: The antiviral effect of combined treatment with the calcium chelate complex of REP 2139 (REP 2139-Ca) and TDF or REP 2139-Ca and TDF and ETV in DHBV infected Pekin ducks was examined by assessing changes in the levels of serum and liver DHBV DNA during and after treatment by quantitative PCR. Infection of ducks was carried out as described in Example II except that treatment was started one month after infection. Treatment regimens were as follows: • 1) Normal saline given by IP injection 3 times per week for 4 weeks • 2) TDF, given 15 mg/day by oral gavage for 28 days • 3) REP 2139-Ca, given 10 mg/kg by IP injection, 3 times per week for 4 weeks. • 4) REP 2139-Ca and TDF (as dosed above) • 5) REP 2139-Ca and TDF (as dosed above) and ETV given 1 mg/day by oral gavage for 28 days.
Serum DHBV DNA was assessed pre-treatment (time point A), at day 14 of treatment (time point B), at the end of treatment (time point C), and one and two months after treatment was stopped (follow-up, time point D and E).

HBV [2] = assay: Quantitative serum HBsAg by IMPACT platform in a patient with chronic HBV infection (Example I); assay type: in vivo, human; details: REP 2055 monotherapy; plateau from 10 weeks until 29 weeks
Source text: To confirm the synergistic activity of combination REP 2055/ETV therapy on suppression of HBsAg, serum samples from this patient were re-analyzed using the IMPACT platform to accurately quantitate serum HBsAg levels as described in de Neit et al. (2014, Antiviral Ther., 19: 259-267). […] Importantly, serum HBsAg reduction in this patient reached a plateau where significant serum HBsAg was stably present starting from 10 weeks of REP 2055 treatment until the start of combination REP 2055/ETV therapy at 29 weeks of treatment.

HBV [3] = assay: Serum HBsAg by on-site qualitative ELISA in a patient with chronic HBV infection (Example I); assay type: in vivo, human; details: REP 2055 monotherapy, once weekly IV infusion of 400 mg, 29 weeks, one patient
Method: (§1) A pharmaceutically acceptable formulation of the NAP REP 2055 (SEQ ID NO: 2) was administered to a patient with chronic HBV infection by once weekly IV infusion of 400 mg. The serum HBsAg response in this patient was monitored real-time each week using a qualified, on-site qualitative ELISA. This ELISA method is very sensitive to low levels of HBsAg but cannot accurately quantify any significant HBsAg concentration in the blood. […] Therefore, after 29 weeks of REP 2055 monotherapy, this patient received HBV polymerase inhibition therapy in addition to the existing REP 2055 therapy which consisted of 0.5 mg of entecavir taken orally every day.
This synergistic control of serum HBsAg with combined REP 2055/ETV treatment was maintained over many weeks of treatment.

HBV [4] = assay: Serum viremia (serum HBV DNA) in a patient with chronic HBV infection (Example I); assay type: in vivo, human; details: REP 2055 monotherapy, once weekly IV infusion of 400 mg, one patient
Method: as §1

DHBV [5] = details: previously established DHBV infection in vivo; cited from earlier work

Compound | serum DHBV DNA during treatment (DHBV [1]; 28 days treatment, day 14 (halfway) and end of treatment, REP 2139-Ca 10 mg/kg IP 3 times per week, TDF 15 mg/day, ETV 1 mg/day oral gavage) | serum DHBV DNA during follow-up (DHBV [1]; one and two months after treatment was stopped) | initial reduction of serum HBsAg (quantitative, IMPACT platform) (HBV [2]) [log] | serum HBsAg (qualitative ELISA) (HBV [3]) | drop in serum viremia (serum HBV DNA) (HBV [4]) [log] | cccDNA copy number (DHBV [5]) | cccDNA transcriptional activity (DHBV [5]) | serum duck HBsAg (DHBsAg) (DHBV [5])
CC(C)OC(=O)OCOP(=O)(CO[C@H](C)Cn1cnc2c(N)ncnc21)OCOC(=O)OC(C)C [TDF, tenofovir disoproxil fumarate] | reduced in all ducks but control was not achieved in all ducks until the end of treatment | rebounded in all ducks |  |  |  |  |  | 
(dAdC)20 (ACACACACACACACACACACACACACACACACACACACAC; DNA, all phosphorothioate, methylation of C not given here) [REP 2055, Each linkage is phosphorothioated] |  |  | ~2 | no detectable reduction | ~1 | reduction in cccDNA copy number | transcriptional inactivation of cccDNA | clearance
